Measurements as given in patent publication US20230226016A1, “AGENTS AND METHODS FOR TREATING TAUOPATHIES” (The Regents of University of California, priority 2020, published 2023).

Columns and labels:
AD crude brain extracts = experiment: Seeding by crude AD brain extract pre-treated with inhibitor, tau biosensor cells (Example 5); format: cell-based, human; conditions: 10 μM final on cells, pre-incubated 16-18 hours
Excerpt: (A) Seeding by crude AD brain extract pre-treated with EGCG or experimental linker-conjugated analogs, as indicated. Inhibitor activity is read-out by measuring seeding in tau biosensor cells. Seeding is taken as a proxy for the fibril load that is contained within the AD crude brain extracts. Reduction in fibril load following treatment with experimental linker-conjugated analogs of EGCG reduces prion-like seeding by AD-tau nearly as effectively as EGCG itself. (B) Representative fluorescence images of tau biosensor cells experiments from A. Intracellular aggregates seeded by crude AD brain extracts are identified as puncta (green dots in the “No inhibitor” treated sample, left fluorescence micrograph). Inhibitor treatment reduces the number of puncta (right fluorescence micrograph). The number of puncta as a function of inhibitor pre-treatment is plotted in A.
We next tested if the D-ring site of triazole-linked amino PEGylation would interfere with tau fibril disaggregation observed for EGCG. […] Crude extract of autopsied brain tissue of a donor with AD (prepared as described in the SI) were pre-incubated with inhibitors (10 μM final concentration on cells) for 16-18 hours and resulting homogenates were added to the cells for imaging 3 days later.

crude AD brain extract = experiment: Seeding by crude AD brain extract in tau biosensor cells, Ferumoxytol conjugates, no pre-incubation; format: cell-based, human; conditions: mixed with extract and immediately transfected
Excerpt: (A) Seeding by crude AD brain extract measured in tau biosensor cells that were co-transfected with nanoparticles coupled to EGCG by linkers of varying length. (B-C) Negative-stain electron micrographs of EGCG-conjugated and non-conjugated nanoparticles. Nanoparticle coupled with EGCG analog 5c (B) cluster with fibrils of AD-tau. No clustering is seen between non-conjugated nanoparticles and AD-tau fibrils (C).
We tested the activity of Ferumoxytol conjugated EGCG analogs using the biosensor cell assay described above, except we omitted the pre-incubation step such that our assay more closely resembled the scenario of therapeutic intervention, for which there is no pre-incubation period. Nanoparticle conjugated EGCG derivative was mixed with crude AD brain extract and immediately transfected into tau biosensor cells.

tau-K18+ monomer = target: T1, tau-K18+ monomer (Homo sapiens, UniProt P10636); experiment: ThT aggregation kinetics assay; format: biochemical; conditions: 20 μM tau-K18+ monomer, equimolar inhibitor
T1 construct: Human Tau tau-K18+(residues Q244-E380 of 4R tau); made in house; host or cells: E. coli BL21-Gold, pNG2 vector
Procedure: (§1) (a) Isothermal titration calorimetry (ITC) of 750 μM EGCG into 75 μM recombinant tau-K18+ fibrils. The binding isotherm was fit using a standard 1 site binding model. (b) ThT assay showing the effect EGCG or negative control, doxycycline, have on the aggregation of 20 μM tau-K18+ monomer^33, a construct that contains all of the residues that are observed in the AD tau fibril core^7,9. Note the sudden drop in ThT signal at 10 hrs (marked by a red arrow) for the sample containing EGCG. (c) Negative stain electron micrographs of 75 μM recombinant tau-K18+ fibrils prior to incubation with EGCG (top) or following 1 or 3 hour incubation with a two-fold molar excess of EGCG at room temperature, as indicated. (d) As in c except EGCG micrographs of tau are of fibrils purified from AD brain tissue and EGCG treatments were carried out at a concentration of 100 μM for a 3 hour or overnight duration at 37° C., as indicated.
Concentrated tau-K18+ was diluted into PBS buffer (pH 7.4) to a final concentration of 20 μM with an equimolar ratio of indicated small molecule inhibitor. […] ThT fluorescence was measured with excitation and emission wavelengths of 440 and 480 nm, and averaged curves were generated from triplicate measurements as indicated in the figure legend. […]

[1] = tested on: crude brain extracts from donors with AD; experiment: Inhibition of seeding by crude AD brain extracts in tau biosensor cells; conditions: 10 μM
Procedure: (§2) (a) Seeding following overnight preincubation of AD brain purified tau fibrils with a final inhibitor concentration of 10 μM. Seeding was measured 3 days after transfecting biosensor cells with fibril-inhibitor complexes. […] Error bars show the standard deviation of triplicate measurements. […] Seeding (expressed as 10 power) was measured as in a, and IC50 values were calculated from dose-response plots. […] Each column represents the inhibitor response of a different donor. Inhibitor concentrations were 10 μM. Responses to inhibitors were normalized to seeding in the absence of inhibitor, abbreviated “No Inh”, and normalized seeding values for each inhibitor were plotted from maximal inhibitor response (low fractional seeding, left) to minimal response (seeding approaching a value of 1.0, right) for each of the indicated inhibitors.
(§3) After twenty minutes, 10 μl of fibrils were added to 90 μl of tau biosensor cells. The number of seeded aggregates was determined by imaging the entire well of a 96-well plate in triplicate using a Celigo Image Cytometer (Nexcelom) in the YFP channel. Aggregates were counted using ImageJ^45 by subtracting the background fluorescence from unseeded cells and then counting the number of peaks with fluorescence above background using the built-in Particle Analyzer. […]

[2] = tested on: crude brain extracts from donors with PSP; experiment: Inhibition of seeding by crude PSP brain extracts in tau biosensor cells; conditions: 10 μM, N=7 donors
Procedure: as §2, §3

PHFE2 fibrils = PHFE2 fibrils (Homo sapiens, UniProt P10636); experiment: ThT measurement of PHFE2 peptide fibrils; conditions: 5 mM EGCG, 30 mM fibrils, 30 min incubation
Procedure: (c) ThT signal of fibrils formed from PHFE2 peptide without EGCG, or following 30 min incubation. Error bars show the standard deviation of triplicate measurements.
Fibrils were grown at 37° C. in an orbital shaker with shaking at 350 rpm for 3-4 weeks. Solutions were removed from shaking and heat upon appearance of fibrils, confirmed by negative stain EM. For ThT experiments, fibrils were diluted to 30 mM in PBS, and ThT was added to a final concentration of 40 μM. EGCG was added from a concentrated stock to a final concentration of 5 mM where indicated. ThT measurements were carried out as described above, except readings were taken from a 384-well plate with a volume of 35 μl.

[3] = tested on: tau fibrils purified from AD brain; experiment: Inhibition of seeding in tau-K18 biosensor cells, AD brain purified tau fibrils as seeds; conditions: 10 μM inhibitor, overnight preincubation, seeding measured 3 days after transfection
Procedure: as §2, §3

[4] = target: fibrils of recombinant tau40 (Homo sapiens, UniProt P10636); experiment: EGCG dose dependence on seeding in tau biosensor cells, fibrils of recombinant tau40 as seeds
Procedure: Error bars show the standard deviation of triplicate measurements. […] (e) EGCG dose dependence on seeding by fibrils of recombinant tau40. Seeding (expressed as 10 power) was measured as in a, and IC50 values were calculated from dose-response plots.
After twenty minutes, 10 μl of fibrils were added to 90 μl of tau biosensor cells. The number of seeded aggregates was determined by imaging the entire well of a 96-well plate in triplicate using a Celigo Image Cytometer (Nexcelom) in the YFP channel. Aggregates were counted using ImageJ^45 by subtracting the background fluorescence from unseeded cells and then counting the number of peaks with fluorescence above background using the built-in Particle Analyzer. The number of aggregates was normalized to the confluence of each well, and dose-response plots were generated by calculating the average and standard deviations from triplicate measurements. For high quality images, cells were photographed on a ZEISS Axio Observer D1 fluorescence microscope using the YFP fluorescence channel.

[5] = tested on: tau fibrils purified from AD brain tissue; experiment: Negative stain electron microscopy of AD brain-derived tau fibrils; design: species or system human; conditions: 100 μM EGCG, overnight, 37° C.
Procedure: as §1
To prepare specimens of AD brain-derived tau fibrils for structural studies, we examined negatively stained EM grids of purified tau fibrils from the frontal cortex of AD donor 1 (FIG. 1a) at various times following incubation with EGCG. AD brain-derived tau fibrils were more robust than recombinant tau fibrils and disaggregation was accelerated by incubation at 37° C. […]

[6] = target: T2, recombinant tau-K18+ fibrils (Homo sapiens, UniProt P10636); experiment: Negative stain electron microscopy of recombinant tau fibrils; conditions: 75 μM fibrils, two-fold molar excess of EGCG, 3 hr, room temperature
Procedure: as §1

[7] = target: T2, recombinant tau-K18+ fibrils; experiment: Isothermal titration calorimetry (ITC); conditions: 750 μM EGCG into 75 μM fibrils, 1 site binding model
Procedure: as §1
Human Tau tau-K18+(residues Q244-E380 of 4R tau) was expressed in a pNG2 vector in BL21-Gold E. coli cells grown in LB to an OD600=0.8. Cells were induced with 0.5 mM IPTG for 3 hours at 37° C. and lysed by sonication in 20 mM MES buffer (pH 6.8) with 1 mM EDTA, 1 mM MgCl2, 1 mM DTT and HALT protease inhibitor before addition of NaCl 500 mM final concentration. […]

T2 sequence (P10636 561-697): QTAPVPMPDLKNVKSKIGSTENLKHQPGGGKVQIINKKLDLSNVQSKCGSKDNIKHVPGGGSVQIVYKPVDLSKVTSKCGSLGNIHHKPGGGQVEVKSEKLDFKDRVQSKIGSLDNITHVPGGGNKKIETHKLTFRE
T1 sequence (P10636 561-697): as above
Chain of fibrils of recombinant tau40 (P10636 1-441 isoform P10636-8): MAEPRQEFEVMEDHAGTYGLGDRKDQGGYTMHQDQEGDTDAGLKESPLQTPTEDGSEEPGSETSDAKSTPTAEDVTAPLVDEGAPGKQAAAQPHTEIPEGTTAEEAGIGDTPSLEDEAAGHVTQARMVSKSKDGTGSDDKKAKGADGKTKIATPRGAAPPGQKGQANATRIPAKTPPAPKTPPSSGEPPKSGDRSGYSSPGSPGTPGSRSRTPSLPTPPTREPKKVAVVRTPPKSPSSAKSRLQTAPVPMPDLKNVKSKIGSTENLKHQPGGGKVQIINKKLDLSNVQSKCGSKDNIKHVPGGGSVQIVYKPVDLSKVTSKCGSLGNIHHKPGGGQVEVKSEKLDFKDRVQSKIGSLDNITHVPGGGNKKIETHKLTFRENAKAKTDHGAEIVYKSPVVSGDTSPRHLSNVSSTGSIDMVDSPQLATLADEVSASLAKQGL

Structure (SMILES): NCCOCCOCCOCCn1cc(COc2c(O)cc(C(=O)O[C@@H]3Cc4c(O)cc(O)cc4O[C@@H]3c3cc(O)c(O)c(O)c3)cc2O)nn1 [Compound 5c, (2R,3R)-5,7-dihydroxy-2-(3,4,5-trihydroxyphenyl)chroman-3-yl 4-((1-(2-(2-(2-(2-aminoethoxy)ethoxy)ethoxy)ethyl)-H-1,2,3-triazol-4-yl)methoxy)-3,5-dihydroxybenzoate]
- inhibition of seeding by AD brain extracts compared with EGCG (AD crude brain extracts): potency nearly on par with EGCG itself

Structure (SMILES): NCCOCCn1cc(COc2c(O)cc(C(=O)O[C@@H]3Cc4c(O)cc(O)cc4O[C@@H]3c3cc(O)c(O)c(O)c3)cc2O)nn1 [Compound 5a, (2R,3R)-5,7-dihydroxy-2-(3,4,5-trihydroxyphenyl)chroman-3-yl 4-((1-(2-(2-aminoethoxy)ethyl)-H-1,2,3-triazol-4-yl)methoxy)-3,5-dihydroxybenzoate]
- inhibition of seeding by crude AD brain extract, Ferumoxytol conjugated analogs (crude AD brain extract): < 50%

Structure (SMILES): O=C(O[C@@H]1Cc2c(O)cc(O)cc2O[C@@H]1c1cc(O)c(O)c(O)c1)c1cc(O)c(O)c(O)c1 [EGCG, (−)-epigallocatechin gallate]
- ThT signal of fibrils formed in the presence of inhibitor (tau-K18+ monomer): abruptly fell after reaching a plateau at 10 hr
- lag time of tau aggregation (ThT) (tau-K18+ monomer): no shift in the lag time
- fractional seeding by AD brain samples ([1]; 15 AD crude brain extracts, normalized to no inhibitor): zero
- inhibition of seeding by crude AD brain extracts ([1]; N=15 donors, all patient samples): at least 50%
- blocking of seeding by crude PSP brain extracts [2]: near perfect efficacy
- inhibition of seeding by crude PSP brain extracts ([2]; all patient samples): at least 50%
- ThT signal of PHFE2 fibrils after addition of inhibitor (PHFE2 fibrils): eliminated nearly any measurable ThT signal
- inhibition of seeding by tau fibrils purified from AD brain [3]: most effective inhibitors of seeding
- IC50 [4]: 400 nM
- disaggregation of AD brain-derived tau fibrils (EM) [5]: most of the AD brain-derived tau fibrils are lost
- disaggregation of recombinant tau fibrils (EM) [6]: virtually vanish
- stoichiometry N (ITC) [7]: 0.86
- Kd ([7]; read-out: affinity (ITC)): 1600 nM

Structure (SMILES): O=C(O[C@@H]1Cc2c(O)cc(O)cc2O[C@@H]1c1ccc(O)c(O)c1)c1cc(O)c(O)c(O)c1 [ECG]
- inhibition of seeding by AD brain extracts compared with EGCG (AD crude brain extracts): inhibit seeding as well as the linker-conjugated analogs
